Measured values taken from patent US9115093B2, “Substituted bicyclic dihydropyrimidinones and their use as inhibitors of neutrophil elastase activity” (Boehringer Ingelheim International GmbH, priority 2013, dated 2015).
Converted amounts (≈) assume the structure as drawn.

Tests used:
[1] = Drug transport across human CACO-2 cells; format: in vitro ADME
Description: Assay for Determination of Drug Transport Across Human CACO-2 Cells
The assay provides information on the potential of a compound to pass the cell membrane, on the extent of oral absorption as well as on whether the compound is actively transported by uptake and/or efflux transporters. For the measurement of permeability across polarized, confluent human cancer colon carcinoma cells 2 (Caco-2) cell monolayers grown on permeable filter supports are used as the in vitro absorption model. Apparent permeability coefficients (PE) of the compounds across the Caco-2 monolayers are measured (pH 7.2, 37° C.) in apical-to-basal (AB) (absorptive) and basal-to-apical (BA) (secretory) transport direction. AB permeability (PEAB) represents drug absorption from the intestine into the blood and BA permeability (PEBA) drug secretion from the blood back into the intestine via both passive permeability as well as active transport mechanisms mediated by efflux and uptake transporters that are expressed on the Caco-2 cells. The compounds are assigned to permeability/absorption classes by comparison of the AB permeabilities with the AB permeabilities of reference compounds with known in vitro permeability and oral absorption in the human. Identical or similar permeabilities in both transport directions indicate passive permeation, vectorial permeability points to additional active transport mechanisms. […] Active transport is concentration-dependently saturable.
Caco-2 cells (1−2*10^5 cells/cm^2 area) are seeded on filter inserts (Costar transwell polycarbonate or PET filters, […] pore size) and cultured (DMEM) for 10 to 25 days. Compounds are dissolved in appropriate solvent (like DMSO, 1-20 mM stock solutions). Stock solutions are diluted with HTP-4 buffer (128.13 mM NaCl, 5.36 mM KCl, 1 mM MgSO4, 1.8 mM CaCl2, 4.17 mM NaHCO3, 1.19 mM Na2HPO4×7H2O, 0.41 mM NaH2PO4×H2O, 15 mM HEPES, 20 mM glucose, pH 7.2) to prepare the transport solutions (typically […] compound, final DMSO <=0.5%). The transport solution (TL) is applied to the apical or basolateral donor side for measuring A-B or B-A permeability (3 filter replicates), respectively. The receiver side contains HTP-4 buffer supplemented with 2% BSA. Samples are collected at the start and end of experiment from the donor and at various time intervals for up to 2 hours also from the receiver side for concentration measurement by LC-MS/MS or scintillation counting. Sampled receiver volumes are is replaced with fresh receiver solution.
The apparent permeability coefficients (PEAB and PEBA) and efflux ratios (PEBA/PEAB) of selected compounds in the Caco-2 drug transport assay described above are listed in Table 17.

Aqueous solubility = format: physicochemical; settings: McIlvaine buffer with 2.5% DMSO; McIlvaine buffer pH 6.8, 2.5% DMSO, 24 h shaking
Protocol: Assay for Determination of Aqueous Solubility
The aqueous solubility of a compound is determined by comparing the amount dissolved in aqueous buffer (containing 2.5% DMSO) to the amount dissolved in an acetonitrile/water (1/1) solution. Starting from a 10 mM DMSO stock solution, aliquots are diluted with acetonitrile/water (1/1) and Mcllvaine buffer pH 6.8, respectively. After 24 h of shaking, the solutions or suspensions are filtered and analyzed by LC-UV. The amount dissolved in buffer is compared to the amount dissolved in the acetonitrile/water (1/1) solution. Solubility is measured from 0.001 to 0.125 mg/ml at a DMSO concentration of 2.5%. If more than 90% of the compound is dissolved in buffer, the value is marked with “>”.

neutrophil elastase [2] = target: T1, neutrophil elastase (Homo sapiens, UniProt P08246); test: Human Neutrophil Elastase Assay; format: biochemical; design: purchased Calbiochem 324681; settings: substrate MeOSuc-Ala-Ala-Pro-Val-AMC, pH 7.5, room temperature
T1 sequence (P08246 30-247 limits assumed): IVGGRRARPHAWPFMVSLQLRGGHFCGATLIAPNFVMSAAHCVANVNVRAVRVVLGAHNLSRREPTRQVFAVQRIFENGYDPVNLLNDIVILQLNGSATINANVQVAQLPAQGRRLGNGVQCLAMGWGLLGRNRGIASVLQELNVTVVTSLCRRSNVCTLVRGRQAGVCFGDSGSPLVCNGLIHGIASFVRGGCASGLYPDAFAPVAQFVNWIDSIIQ
Outline: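 Readout: AMC fluorescence (ex 380, em 460 nm) after 60 min room-temperature reaction with 250 nM MeOSuc-AAPV-AMC, following 15 min compound–enzyme preincubation. Buffer: Tris/NaCl pH 7.5, 0.01% BSA.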

neutrophil elastase [3] = target: T1, neutrophil elastase; test: Neutrophil elastase inhibitory activity in human plasma; format: biochemical; design: The stimulated blood is centrifuged to generate the neutrophil elastase enriched plasma; from tissue; host or cells: plasma from zymosan-stimulated citrated whole blood of healthy human donors; settings: neutrophil elastase enriched human plasma (zymosan-stimulated blood), substrate MeOSuc-Ala-Ala-Pro-Val-AMC
Protocol: Assay for the Determination of Neutrophil Elastase Inhibitory Activity in Human Plasma
Citrated blood from human healthy donors is mixed with zymosan suspension and incubated at room temperature. This leads to the stimulation of neutrophils and the release of neutrophil elastase into the plasma. The stimulated blood is centrifuged to generate the neutrophil elastase enriched plasma.
Preparation of Zymosan Working Solution:
• single 45 ml blood sample is taken into a 50 ml tube containing citrate (3.13%, 5 mL) and the tube is gently inverted 4 times. • Immediately after blood sampling, zymosan working solution (5 mL) is added. • After the addition of zymosan working solution, the tubes are capped, mixed gently and incubated at 22° C. for 15 min on a shaker at 20 rpm. • Make 10 ml aliquots after the incubation time. • Centrifuge the 15 ml tubes at 800 g for […] at 4° C. in a Jouan centrifuge. • Harvest the plasma and make 1-5 ml aliquots. • Store the plasma at −80° C.
Various concentrations of the neutrophil elastase inhibitor are incubated with plasma. Subsequently, the enzyme activity is measured using the fluorogenic substrate MeOSuc-Ala-Ala-Pro-Val-AMC (Bachem Cat. No. 1-1270, substrate concentration: 250 μM, pH 7.5, 25 mM TRIS buffer, 250 mM NaCl) in analogous fashion as described for the human neutrophil assay. A dose response curve is generated to calculate the EC50 of the inhibitor. The analysis of the data is performed by the calculation of the percentage of fluorescence in the presence of the test compound compared to the fluorescence of the vehicle control after subtracting the background fluorescence: An inhibitor of the neutrophil elastase enzyme will give values between 100% control (no inhibition) and 0% control (complete inhibition). The human plasma shift of selected compounds can be calculated using the following equation: Human plasma shift=(EC50 in human plasma assay)/(IC50 in human neutrophil elastase assay) The EC50 values of selected compounds in the human plasma assay described above are listed in Table 14.

- Papp A→B at 10 nM ([1]; Caco-2 monolayers, apical-to-basal, pH 7.2, 37° C., read-out: PEAB): 16.4 ×10⁻⁶ cm/s
- Papp B→A at 10 nM ([1]; Caco-2 monolayers, basal-to-apical, pH 7.2, 37° C., read-out: PEBA): 80.7 ×10⁻⁶ cm/s
- efflux ratio at 10 nM ([1]; pH 7.2, Caco-2, PEBA/PEAB): 4.9
- solubility at 24 h (Aqueous solubility): 98 µg/mL (≈ 186 µM)
- IC50 (neutrophil elastase [2]): 1.4 nM
- EC50 (neutrophil elastase [3]): 6 nM
SMILES: CN(C)CCNC(=O)N1C(=O)N(c2cccc(C(F)(F)F)c2)C2=C(C(=O)CCC2)C1c1ccc(C#N)cc1 (stereo not drawn) [Example 39.8]
